From ChEMBL document CHEMBL6103582, “Computer-aided discovery of novel AMPK activators through virtual screening and SAR-driven synthesis” (Eur J Med Chem, 2025) come the findings set out here.

The source made the active and inactive calls. No cut-off for these calls is given here.

A short description of data set [1]: Cytotoxicity against mouse N2a-APPswe cells assessed as cell viability at 5 uM measured after 24 hrs by WST-1 assay. The format is toxicity, cell-based. (In general: Formazan colour is commonly taken as a measure of viable cells.)
Data set [2] deals with AMPK. Put plainly: Activation of AMPK gamma (unknown origin) assessed as increase in phosphorylation of SAMS peptide by measuring fold change at 10 uM measured after 30 mins by ADP-Glo assay. As to conditions: Homo sapiens, filed as activator. A general note: ADP-Glo first removes unused ATP, then detects ADP through luciferase.
Data set [3] deals with N2a-APPswe. Put plainly: Activation of AMPK in mouse N2a-APPswe cells assessed as increase in phosphorylation by measuring pAMPK/AMPK ratio at 5 uM measured after 24 hrs by Western blot analysis. The format is cell-based. As to conditions: filed as activator. In general terms: In western blotting, separated proteins are transferred to a membrane and probed.
Data set [4] deals with N2a-APPswe. Description: Activation of AMPK in mouse N2a APPswe cells assessed as increase in phosphorylation by measuring pAMPK/AMPK ratio at 10 uM measured after 24 hrs by Western blot analysis. The format is cell-based. As to conditions: filed as activator.
The test system of data set [5] is N2a-APPswe. Put plainly: Activation of AMPK in mouse N2a-APPswe cells assessed as increase in phosphorylation by measuring pACC/ACC ratio at 10 uM measured after 24 hrs by Western blot analysis. The format is cell-based. Particulars: filed as activator.
Data set [6] relates to N2a-APPswe. Description: Activation of AMPK in mouse N2a-APPswe cells assessed as increase in phosphorylated Raptor at Ser792 at 10 uM measured after 3 hrs by Western blot analysis. The format is cell-based. Particulars: filed as activator.
Data set [7] relates to N2a-APPswe. Put plainly: Activation of AMPK in mouse N2a-APPswe cells assessed as increase in phosphorylated ACC at Ser79 at 10 uM measured after 3 hrs by Western blot analysis. The format is cell-based. As to conditions: filed as activator.
In data set [8] the test system is N2a-APPswe. Put plainly: Activation of AMPK in mouse N2a-APPswe cells assessed as increase in phosphorylated AMPK at Thr172 at 10 uM measured after 3 hrs by Western blot analysis. The format is cell-based. As to conditions: filed as activator.

Regarding `COc1ccc(/C=C/C(=O)c2cccc(N)c2)cc1`, in data set [1], the Activity entry is given as “Non-toxic”. For the same compound, the results for the fold change (FC) in data set [2] and in data set [3] were 2.3 and > 1, respectively. Consider `Cc1ccc(C)c(Oc2coc3cc(OCC(=O)OCC(C)C)ccc3c2=O)c1`, for which the fold change (FC) in data set [4] was > 1. As for `COc1ccc2c(=O)c(Oc3cc(C)ccc3C)coc2c1`, the fold change (FC) in data set [4] was > 1. For `Nc1cccc(C(=O)/C=C/c2ccc(N3CCCCC3)cc2)c1`, in data set [1], the Activity entry is “Non-toxic”. Further, the fold change (FC) in data set [2] is 2.05; in data set [3], > 1. On to `Cc1ccc(NCc2ccc(C(=O)N3CCC(C(=O)O)CC3)cc2)cc1`, for which the fold change (FC) in data set [5] and in data set [4] was > 1 in each case. Turning to `Cc1ccc(C)c(Oc2coc3cc(OCc4ccc(Cl)cc4Cl)ccc3c2=O)c1`, the fold change (FC) in data set [4] is > 1. In the case of `COc1cc(O)ccc1/C=C/C(=O)c1cccc(N)c1`, the fold change (FC) in data set [2] was 1.73. Take `O=C(O)C1CCCN(C(=O)Cn2nc(-c3ccc4ccccc4c3)ccc2=O)C1` (centres undefined): the fold change (FC) in data set [5] and in data set [4] was > 1 throughout. `Cc1ccc(C)c(Oc2coc3cc(OCC(=O)OC4CCCCC4)ccc3c2=O)c1`: in data set [4], the fold change (FC) is > 1. As for `Cc1ccc(C)c(Oc2coc3cc(OC(=O)c4cccc(Br)c4)ccc3c2=O)c1`, the fold change (FC) in data set [5] and in data set [4] was > 1 in each case.

Consider `Cc1ccc(C)c(Oc2coc3cc(OCc4ccc(F)cc4)ccc3c2=O)c1`, for which the fold change (FC) in data set [4] was > 1.

`NC(=O)c1ncn([C@@H]2O[C@H](CO)[C@@H](O)[C@H]2O)c1N`: the fold change (FC) in data set [5] and in data set [4] was > 1 in each case. `Nc1ccc(C(=O)/C=C/c2ccc(N3CCCCC3)cc2)cc1`: the Activity result in data set [1] is listed as “Non-toxic”. The values for the fold change (FC) in data set [2] and in data set [3] were 2.16 and > 1, respectively.

Take `O=C(/C=C/c1ccc(N2CCCCC2)cc1)c1ccc(O)cc1`: in data set [1], the Activity result was “Non-toxic”. In addition, the values for the fold change (FC) in data set [2] and in data set [3] were 2.96 and > 1, respectively. On to `COc1ccc(/C=C/C(=O)c2ccc(N)cc2)c(OC)c1`, for which the Activity result in data set [1] is listed as “Non-toxic”. As to `O=C(/C=C/c1ccc(N2CCCCC2)cc1)c1ccc(O)cc1O`, the Activity entry in data set [1] is reported as “Non-toxic”. Further, the values for the fold change (FC) in data set [2] and in data set [3] were 2.48 and > 1, respectively.

In the case of `COc1ccc(OC)c(/C=C/C(=O)c2ccc(N)cc2)c1`, the fold change (FC) in data set [2] worked out at 1.93. With `Cc1cc(C)c(C)c(Oc2coc3cc(OC(=O)C(C)N4C(=O)c5ccccc5C4=O)ccc3c2=O)c1` (centres undefined), in data set [4], the fold change (FC) is > 1.

As to `Cn1ccnc1CNC(=O)CCc1nnc(-c2ccc(-c3ccccc3)cc2)o1`, the fold change (FC) in data set [5] and in data set [4] was > 1 in each case.

Consider `Cc1ccc(CCC(=O)Nc2ccc3c(c2)CN(C(=O)CCn2cnnn2)CC3)cc1`, for which the fold change (FC) in data set [5] and in data set [4] was > 1 throughout. Take `Cc1cc(-c2cc3c(n(Cc4cccnc4)c2=O)CCN(C(=O)c2ccc4c(c2)OCO4)C3)ccc1F`: the fold change (FC) in data set [5] and in data set [4] was > 1 throughout. `CCOC(=O)N1CCN(C(=O)c2ccc(N3CCC(NCCn4nc(C)cc4C)CC3)cc2)CC1`: the fold change (FC) in data set [5] and in data set [4] was > 1 each time.

`Cc1ccc(C)c(Oc2coc3cc(OC(=O)c4ccc(-c5ccccc5)cc4)ccc3c2=O)c1`: the fold change (FC) in data set [4] is > 1. With `COc1ccc(OC)c(/C=C/C(=O)c2cccc(NS(=O)(=O)c3ccc(Cl)cc3)c2)c1`, the fold change (FC) in data set [2] was found to be 1.94.

Take `COc1ccc(OC)c(/C=C/C(=O)c2cccc(N(S(=O)(=O)c3ccc(Cl)cc3)S(=O)(=O)c3ccc(Cl)cc3)c2)c1`: in data set [1], the Activity entry is given as “Non-toxic”. Further, the fold change (FC) is 2.53 in data set [2] and > 1 in data set [3]. `CN1[C@@H](c2ccccc2)[C@@H](C(=O)NCCn2ccnc2)C[C@@]1(C)C(=O)O`: the fold change (FC) in data set [5] and in data set [4] was > 1 each time. For the compound `COCCN1C(=O)N(Cc2cccnc2)C(=O)C12CCN(Cc1nc(-c3ccccc3)cs1)CC2`, the results for the fold change (FC) in data set [5] and in data set [4] were < 1 and > 1, respectively. As to `Cc1ccccc1-c1noc(CCC(=O)NC(C)c2ccccc2-n2cccn2)n1` (centres undefined), the fold change (FC) in data set [5] and in data set [4] was > 1 throughout. Consider `O=C(CCn1cnnn1)N1CCCC(N2CCN(c3cccc(C(F)(F)F)c3)CC2)C1` (centres undefined), for which the fold change (FC) in data set [5] and in data set [4] was > 1 each time. With `CCOCCOC(=O)COc1ccc2c(=O)c(Oc3cc(C)ccc3C)coc2c1`, in data set [4], the fold change (FC) is > 1. Regarding `N#CC1C(=O)Nc2scc(-c3ccc(-c4ccccc4O)cc3)c2C1=O` (centres undefined), the fold change (FC) in data set [3], in data set [5] and in data set [4] was > 1 throughout.

As to `COc1ccc(/C=C/C(=O)c2cccc(NS(=O)(=O)c3ccc(Cl)cc3)c2)cc1`, the fold change (FC) in data set [2] was 1.82. Take `COc1ccc(OC)c(/C=C/C(=O)c2cccc(N)c2)c1`: the Activity entry in data set [1] was “Non-toxic”. In addition, the results for the fold change (FC) in data set [2] and in data set [3] were 2.62 and > 1, respectively. Regarding `COc1ccc(OC)c(C(=O)c2ccc(C(=O)N3CCc4c(cnc(C)c4CNC(C)=O)C3)cc2)c1`, the fold change (FC) in data set [5] and in data set [4] was > 1 throughout.

Regarding `CCOC(=O)c1nn(CCCc2ccccc2)c2c1CN(C(=O)Cn1nc3ccccc3n1)CC2`, the fold change (FC) in data set [5] and in data set [4] was > 1 in each case. On to `Cc1ccc(C)c(Oc2coc3cc(OCCc4ccccc4)ccc3c2=O)c1`, for which the fold change (FC) in data set [4] is > 1. With `CN1CCN(c2ccc(C(=O)/C=C/c3ccc(O)cc3)cc2)CC1`, in data set [2], the fold change (FC) worked out at 1.52. On the same count and under the same terms, the figure for `COc1cc(O)ccc1/C=C/C(=O)c1ccc(N2CCNCC2)cc1` is 1.51. Regarding `COc1ccc(OC)c(/C=C/C(=O)c2ccc(NS(=O)(=O)c3ccc(Cl)cc3)cc2)c1`, the Activity entry in data set [1] is “Non-toxic”. In addition, the fold change (FC) in data set [2] was 2.45; in data set [3] it was > 1. In addition, the outcome in data set [6], in data set [7] and in data set [8] was Active.
